According to patent US20110178053A1, “AZACARBOLINE DERIVATIVES, PREPARATION METHOD THEREOF AND THERAPEUTIC USE OF SAME” (SANOFI-AVENTIS, priority 2008, published 2011):

Key:
Pim-1 = biological target: T1, Pim-1 (Homo sapiens, UniProt P11309); experiment: TR-FRET assay, Pim-1 kinase (phosphorylation of Bad Ser112); assay type: biochemical; conditions: TR-FRET; ATP 40 μM; read-out: IC50 Pim1
T1 construct: His6-labelled recombinant full-length human Pim-1, Pim-2 or Pim-3 protein; His6; made in house
T1 sequence (P11309 whole entry): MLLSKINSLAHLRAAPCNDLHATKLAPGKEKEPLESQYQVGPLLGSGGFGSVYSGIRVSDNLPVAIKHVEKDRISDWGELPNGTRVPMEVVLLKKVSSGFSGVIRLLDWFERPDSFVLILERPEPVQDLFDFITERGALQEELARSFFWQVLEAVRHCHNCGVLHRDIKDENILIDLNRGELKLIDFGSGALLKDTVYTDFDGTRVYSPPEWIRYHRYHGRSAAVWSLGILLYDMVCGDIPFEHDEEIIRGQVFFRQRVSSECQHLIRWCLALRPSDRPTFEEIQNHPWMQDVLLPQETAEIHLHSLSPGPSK
Procedure, shortened: (§1)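 For each of Pim-1, Pim-2 and Pim-3 (His6-tagged full-length human), compounds were titrated over 10 concentrations in duplicate, typically from 30 μM, with ATP at 40 μM, equal to apparent KM. Bad Ser112 phosphorylation was read as the 665/615 nm TR-FRET ratio and IC50 fitted by 4-parameter logistic model.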

Pim-3 = biological target: T2, Pim-3 (Homo sapiens, UniProt Q86V86); experiment: TR-FRET assay, Pim-3 kinase (phosphorylation of Bad Ser112); assay type: biochemical; conditions: TR-FRET; ATP 40 μM; read-out: IC50 Pim3
T2 construct: His6-labelled recombinant full-length human Pim-1, Pim-2 or Pim-3 protein; His6; made in house
Procedure, shortened: as §1

PLK1 = PLK1 (Homo sapiens, UniProt P53350); experiment: PLK1 biochemical inhibition
PLK1, sequence (P53350 whole entry, species assumed): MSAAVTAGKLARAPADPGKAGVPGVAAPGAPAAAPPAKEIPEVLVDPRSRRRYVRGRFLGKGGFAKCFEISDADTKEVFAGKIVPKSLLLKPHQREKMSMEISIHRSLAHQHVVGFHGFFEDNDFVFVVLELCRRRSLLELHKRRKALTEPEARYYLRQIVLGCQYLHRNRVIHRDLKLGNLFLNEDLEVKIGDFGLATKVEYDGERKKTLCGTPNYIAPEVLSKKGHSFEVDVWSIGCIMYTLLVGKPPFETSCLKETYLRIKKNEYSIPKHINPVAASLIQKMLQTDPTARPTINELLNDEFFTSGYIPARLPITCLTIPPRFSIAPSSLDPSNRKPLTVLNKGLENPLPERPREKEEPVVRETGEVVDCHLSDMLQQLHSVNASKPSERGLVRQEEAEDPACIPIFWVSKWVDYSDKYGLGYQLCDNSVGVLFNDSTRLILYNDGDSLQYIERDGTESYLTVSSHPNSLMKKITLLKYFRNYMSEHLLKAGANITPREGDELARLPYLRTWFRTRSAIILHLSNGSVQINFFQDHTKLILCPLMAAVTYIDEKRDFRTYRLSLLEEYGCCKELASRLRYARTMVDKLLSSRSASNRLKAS

Pim-2 = biological target: T3, Pim-2 (Homo sapiens, UniProt Q9P1W9); experiment: TR-FRET assay, Pim-2 kinase (phosphorylation of Bad Ser112); assay type: biochemical; conditions: TR-FRET; ATP 40 μM; read-out: IC50 Pim2
T3 construct: His6-labelled recombinant full-length human Pim-1, Pim-2 or Pim-3 protein; His6; made in house
T3 sequence (Q9P1W9 whole entry): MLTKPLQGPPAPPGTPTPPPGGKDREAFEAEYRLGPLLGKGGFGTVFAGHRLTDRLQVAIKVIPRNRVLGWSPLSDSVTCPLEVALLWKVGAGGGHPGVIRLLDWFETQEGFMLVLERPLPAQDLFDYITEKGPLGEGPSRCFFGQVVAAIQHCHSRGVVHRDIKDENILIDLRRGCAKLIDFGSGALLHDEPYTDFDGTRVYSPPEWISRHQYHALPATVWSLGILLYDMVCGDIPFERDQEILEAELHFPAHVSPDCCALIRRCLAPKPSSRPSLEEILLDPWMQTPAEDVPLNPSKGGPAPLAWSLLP
Procedure, shortened: as §1

Question: What does the source list for `CCN(CC)CCn1nc(C)c(-c2cnc3[nH]c4cnc(-c5cccnc5)cc4c3c2)c1C` [Example 125, 2-{3,5-dimethyl-4-[6-(pyrid-3-yl)-9H-pyrrolo[2,3-b:5,4-c′]dipyrid-3-yl]-1H-pyrazol-1-yl}-N,N-diethyl-ethanamine]?
Answer: IC50 (Pim-1): 1 to 100 nM; IC50 (Pim-3): 1 to 100 nM; IC50 (PLK1): 1000 to 5000 nM

Question: What does the source list for `NCCCOc1ccc(-c2cnc3[nH]c4cnc(-c5cccnc5)cc4c3c2)cc1` [Example 155, 3-{4-[6-(pyrid-3-yl)-9H-pyrrolo[2,3-b:5,4-c′]dipyrid-3-yl]-phenoxy}propan-1-amine]?
Answer: IC50 (Pim-1): 1 to 100 nM; IC50 (Pim-2): 100 to 1000 nM; IC50 (Pim-3): 1 to 100 nM

Question: Which IC50 (Pim-1) does the source give for `Cc1cc(N2CCN(C(=O)OC(C)(C)C)CC2)ncc1-c1cnc2[nH]c3cnc(-c4cccnc4)cc3c2c1` [Example 156, 2-methyl-2-propyl 4-{4-methyl-5-[6-(pyrid-3-yl)-9H-pyrrolo[2,3-b:5,4-c′]dipyrid-3-yl]-pyrid-2-yl}piperazine-1-carboxylate] here?
Answer: Its IC50 is 1 to 100 nM.

Question: And the IC50 (Pim-2)?
Answer: The IC50 was greater than 5000 nM.

Question: And the IC50 (Pim-3)?
Answer: The IC50 was 100 to 1000 nM.

Question: Which results are given for `Cc1cc(N2CCNCC2)ncc1-c1cnc2[nH]c3cnc(-c4cccnc4)cc3c2c1` [Example 157, 3-[4-methyl-6-(piperazin-1-yl)pyrid-3-yl]-6-(pyrid-3-yl)-9H-pyrrolo[2,3-b:5,4-c′]-dipyridine]?
Answer: IC50 (Pim-1): 1 to 100 nM; IC50 (Pim-2): 100 to 1000 nM; IC50 (Pim-3): 1 to 100 nM

Question: Which results are given for `c1cncc(-c2cc3c(cn2)[nH]c2ncc(-c4ccc(N5CCNCC5)nc4)cc23)c1` [Example 158, 3-[6-(piperazin-1-yl)pyrid-3-yl]-6-(pyrid-3-yl)-9H-pyrrolo[2,3-b:5,4-c′]dipyridine]?
Answer: IC50 (Pim-1): 1 to 100 nM; IC50 (Pim-2): 100 to 1000 nM; IC50 (Pim-3): 1 to 100 nM

Question: What does the source list for `COc1cncc(-c2cc3c(cn2)[nH]c2ncc(F)cc23)c1` [Example 159, 3-fluoro-6-(5-methoxypyrid-3-yl)-9H-pyrrolo[2,3-b:5,4-c′]dipyridine]?
Answer: IC50 (Pim-1): 1000 to 5000 nM; IC50 (Pim-2): > 5000 nM; IC50 (Pim-3): 1000 to 5000 nM

Question: For `COc1ccncc1-c1cc2c(cn1)[nH]c1ncc(F)cc12` [Example 160, 3-fluoro-6-(4-methoxypyrid-3-yl)-9H-pyrrolo[2,3-b:5,4-c′]dipyridine], which IC50 (Pim-1) is on record?
Answer: Its IC50 is 100 to 1000 nM.

Question: What about the IC50 (Pim-2) of the same compound?
Answer: The IC50 was greater than 5000 nM.

Question: And the IC50 (Pim-3)?
Answer: The IC50 was 1000 to 5000 nM.

Question: For `CSc1cncc(-c2cc3c(cn2)[nH]c2ncc(F)cc23)c1` [Example 161, 3-fluoro-6-[5-(methylsulfanyl)pyrid-3-yl]-9H-pyrrolo[2,3-b:5,4-c′]dipyridine], which IC50 (Pim-1) is on record?
Answer: The IC50 was 100 to 1000 nM.

Question: And the IC50 (Pim-2)?
Answer: The IC50 was greater than 5000 nM.

Question: What about the IC50 (Pim-3) of the same compound?
Answer: Its IC50 is 100 to 1000 nM.

Question: Which IC50 (Pim-1) does the source give for `Fc1cnc2[nH]c3cnc(-c4ccsc4)cc3c2c1` [Example 162, 3-fluoro-6-(thiophen-3-yl)-9H-pyrrolo[2,3-b:5,4-c′]dipyridine] here?
Answer: Its IC50 is greater than 5000 nM.

Question: What about the IC50 (Pim-3) of the same compound?
Answer: Its IC50 is greater than 5000 nM.

Question: What about the IC50 (PLK1) of the same compound?
Answer: The IC50 was 1000 to 5000 nM.

Question: With `CCN(CC)CCCn1cc(-c2cc3c(cn2)[nH]c2ncc(OC)cc23)cn1` [Example 166, N,N-diethyl-3-[4-(3-methoxy-9H-pyrrolo[2,3-b:5,4-c′]dipyrid-6-yl)-1H-pyrazol-1-yl]-propan-1-amine] as the compound, how does the IC50 (Pim-1) read?
Answer: Its IC50 is 100 to 1000 nM.

Question: What about the IC50 (Pim-2) of the same compound?
Answer: The IC50 was greater than 5000 nM.

Question: And the IC50 (Pim-3)?
Answer: The IC50 was 1000 to 5000 nM.

Question: With `COc1cnc2[nH]c3cnc(-c4cnn(CCCCCN)c4)cc3c2c1` [Example 168, 5-[4-(3-methoxy-9H-pyrrolo[2,3-b:5,4-c′]dipyrid-6-yl)-1H-pyrazol-1-yl]pentan-1-amine] as the compound, how does the IC50 (Pim-1) read?
Answer: Its IC50 is 100 to 1000 nM.

Question: And the IC50 (Pim-2)?
Answer: The IC50 was greater than 5000 nM.

Question: What about the IC50 (Pim-3) of the same compound?
Answer: Its IC50 is 100 to 1000 nM.

Question: Which results are given for `COc1cnc2[nH]c3cnc(-c4cnn(CCC5CCCCN5C)c4)cc3c2c1` (stereo not drawn) [Example 169, 3-methoxy-6-{1-[2-(1-methylpiperid-2-yl)ethyl]-1H-pyrazol-4-yl}-9H-pyrrolo[2,3-b:5,4-c′]dipyridine]?
Answer: IC50 (Pim-1): 100 to 1000 nM; IC50 (Pim-2): > 5000 nM; IC50 (Pim-3): 100 to 1000 nM

Question: How did the IC50 (Pim-1) turn out when `C=CCn1cc(-c2cc3c(cn2)[nH]c2nccc(-c4ccc(C(=O)OC)cc4)c23)cn1` [Example 170, methyl 4-{6-[1-(prop-2-en-1-yl)-1H-pyrazol-4-yl]-9H-pyrrolo[2,3-b:5,4-c′]dipyrid-4-yl}benzoate] was run?
Answer: The IC50 was 1 to 100 nM.

Question: What about the IC50 (Pim-2) of the same compound?
Answer: The IC50 was 100 to 1000 nM.

Question: What about the IC50 (Pim-3) of the same compound?
Answer: Its IC50 is 100 to 1000 nM.

Question: Which IC50 (Pim-1) does the source give for `Cn1cc(-c2cc3c(cn2)[nH]c2ncc(F)c(-c4ccc(NS(C)(=O)=O)cc4)c23)cn1` [Example 171, N-{-4-[3-fluoro-6-(1-methyl-1H-pyrazol-4-yl)-9H-pyrrolo[2,3-b:5,4-c′]dipyrid-4-yl]-phenyl}methane sulfonamide] here?
Answer: Its IC50 is 1 to 100 nM.

Question: What about the IC50 (Pim-2) of the same compound?
Answer: The IC50 was 1 to 100 nM.

Question: What about the IC50 (Pim-3) of the same compound?
Answer: The IC50 was 1 to 100 nM.

Question: What does the source list for `O=C(O)c1cc2c(cn1)[nH]c1ncccc12` [Example 172, 9H-pyrrolo[2,3-b:5,4-c′]dipyridine-6-carboxylic acid]?
Answer: IC50 (Pim-1): > 5000 nM; IC50 (Pim-2): > 5000 nM; IC50 (PLK1): > 5000 nM
